Experimental data from patent US20070098685A1, “Methods and kits to treat chronic inflammatory immune diseases by administering a proteasome inhibitor and an interleukin 2 receptor agonist” (priority 2005, published 2007).
Where two headings read alike, the source gives them in different places.

Columns and labels:
[1] = Animal models of immune disease; type: in vivo; settings: 0.03 mg/kg dose
Procedure: Without being limited by any particular theory or mechanism, a preferred embodiment of the method is administering systemically a dose of a proteasome inhibitor that gives partial inhibition (20-30%) of red blood cell proteasome activity. In human subjects, a Velcade™ PS-341dose of 0.4 mg/m^2 gave 30% inhibition of blood cell proteasome activity after a single intravenous bolus injection; (Orlowski et al. 2002 J. Clin. Oncol. 20 pp. 4420-27).

blood cell proteasome [2] = settings: rats, cited from earlier work
[3] = humans, cited from earlier work
[4] = animal models and human subjects; cited from earlier work
[5] = test system: CD4Th1 T cell mediated inflammation; experiment: Delayed type hypersensitivity (DTH) reaction in mice, ear swelling after topical DNFB; type: in vivo; settings: PS 341 0.003 to 0.01 or 0.03 mg/kg co-administered with IL2 (4 ng), FIG. 2
Source text: FIG. 1 is a drawing of a protocol for induction and assay of delayed-type hypersensitivity (DTH) in mice, as a function of time from left to right. Groups of experimental animals are sensitized on two successive days (at time points indicated as days—5 and —4 in the Figure) by application of 2,4-dinitro-1-fluorobenzene (DNFB; obtained from Sigma, St. Louis, Mo) to footpads, the DNFB dissolved in acetone or acetone/olive oil. After an additional day (at time indicated as day—3) proteasome inhibitor PS 341 and interleukin 2 (IL 2) are administered by intraperitoneal injection (IP). Animals are challenged, elicited for a T cell response, with DNFB topically applied to a target tissue such as ears at a point in time […] after administration, the point in time indicated as day 0. Swelling of the target, i.e., ear marker organ or tissue is measured at subsequent time points, exemplified as day 1 in the Figure.
Groups of experimental and control mice are administered an IL2 dose which is a constant amount (4 ng) in each group with the exception of a group of control animals not administered IL2, and are administered an amount of PS 341 that is varied (from 0.003 to 0.01 or 0.03 mg/kg total weight) in each of the various experimental groups. A control group of mice is administered IL 2 alone (no PS 341). […]
Inflammation was measured by ear swelling after applying topical DNFB. […]

[6] = human subjects, 0.4 mg/m^2; cited from earlier work
[7] = cited from earlier work
blood cell proteasome [8] = settings: cited from earlier work
[9] = in vivo; cited from earlier work
[10] = cited from earlier work; remark: listed apart in the source
[11] = target: T1, high affinity IL2 receptor (Homo sapiens, UniProt P01589+P14784+P31785); settings: high affinity IL2 receptor on activated T cells; cited from earlier work
T1 sequence (P01589 22-272): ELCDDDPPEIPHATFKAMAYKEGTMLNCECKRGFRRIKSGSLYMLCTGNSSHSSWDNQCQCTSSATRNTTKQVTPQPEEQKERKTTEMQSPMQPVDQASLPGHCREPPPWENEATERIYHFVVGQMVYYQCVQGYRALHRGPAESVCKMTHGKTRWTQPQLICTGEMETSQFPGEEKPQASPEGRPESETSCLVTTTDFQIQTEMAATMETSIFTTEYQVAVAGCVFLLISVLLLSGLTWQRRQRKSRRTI
T1 sequence (P14784 27-551): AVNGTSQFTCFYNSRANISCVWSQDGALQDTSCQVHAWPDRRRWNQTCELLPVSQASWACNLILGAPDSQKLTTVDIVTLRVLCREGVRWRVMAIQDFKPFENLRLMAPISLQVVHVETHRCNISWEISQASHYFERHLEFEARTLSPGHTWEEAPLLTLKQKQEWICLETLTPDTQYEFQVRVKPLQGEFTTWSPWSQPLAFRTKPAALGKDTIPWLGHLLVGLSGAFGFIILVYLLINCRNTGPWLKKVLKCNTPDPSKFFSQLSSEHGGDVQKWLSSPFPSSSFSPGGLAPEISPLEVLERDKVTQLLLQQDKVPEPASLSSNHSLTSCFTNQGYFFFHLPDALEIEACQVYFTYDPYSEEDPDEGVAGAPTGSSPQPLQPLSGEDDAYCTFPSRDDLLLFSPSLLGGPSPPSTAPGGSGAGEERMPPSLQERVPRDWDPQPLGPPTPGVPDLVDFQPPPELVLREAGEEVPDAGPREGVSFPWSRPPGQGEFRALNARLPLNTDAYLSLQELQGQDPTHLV
T1 sequence (P31785 23-369): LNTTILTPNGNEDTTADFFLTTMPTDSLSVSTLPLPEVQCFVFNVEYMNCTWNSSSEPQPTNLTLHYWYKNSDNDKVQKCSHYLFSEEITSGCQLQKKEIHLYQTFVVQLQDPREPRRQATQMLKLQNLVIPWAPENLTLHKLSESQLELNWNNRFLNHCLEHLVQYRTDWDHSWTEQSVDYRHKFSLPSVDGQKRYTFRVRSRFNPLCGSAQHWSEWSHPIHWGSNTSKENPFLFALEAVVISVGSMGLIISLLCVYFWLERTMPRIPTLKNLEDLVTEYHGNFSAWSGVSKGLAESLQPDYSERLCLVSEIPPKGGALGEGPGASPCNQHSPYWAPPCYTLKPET

Row | Compound | therapeutic effect [1] | tolerability [1] | partial proteasome inhibition (blood cell proteasome [2]; 0.03 mg/kg intravenous bolus dose) | maximal blood cell proteasome inhibition (blood cell proteasome [2]; 0.3 mg/kg intravenous bolus, one hour after dosing) | half-life [3] | half-life ([3]; listed as Velcade) | toxicity [4] | inhibition of DTH (ear swelling) [5] | therapeutic efficacy [6] | adverse events ([7]; human studies, doses that are 1 mg/m^2) | serious adverse events ([7]; human subjects, dose that causes partial inhibition of blood proteasome activity) | adverse events ([7]; human subjects, doses less than or equal to 0.4 mg/m^2, multiple administration) | inhibition of blood cell proteasome activity (blood cell proteasome [8]; human subjects, 0.4 mg/m^2, single intravenous bolus injection) | maximal blood cell proteasome inhibition (blood cell proteasome [8]; humans, 1.38 mg/m^2 intravenous bolus, one hour after dosing) | half-life [9] | tolerability ([10]; intravenous administration for extended periods) | tolerability ([10]; low doses (<20 million Units), repeated daily dosing for many weeks) | Kd [11]
1 | CC(C)C[C@H](NC(=O)[C@H](Cc1ccccc1)NC(=O)c1cnccn1)B(O)O [PS-341, Pyz Phe boro leu; Pyz2,5 pyraninecarboxylic acid] | not effective therapeutically | well tolerated | 20-30% | 80% | approximately 24 hours | 24 h | free from substantial toxicity | increasing inhibition of DTH | no significant therapeutic efficacy | adverse events are observed | does not cause serious adverse events | No adverse events were observed | 30% | 80% |  |  |  | 
2 | des ala-1 serine 125 human interleukin 2 [IL2] |  |  |  |  |  |  |  |  |  |  |  |  |  |  | 1.5 h | well tolerated | well tolerated | 0.01 nM
